Columns and labels:
[1] = system: patients with symptomatic obstructive HCM (oHCM) receiving disopyramide; experiment: Phase 2 trial in oHCM, Cohort 3: CK-274 in combination with disopyramide; format: in vivo, human
Description: Cohort 3 included patients receiving disopyramide.
Body weight was ≥45 kg at screening; 4. […] Adequate acoustic windows for echocardiography; 6. Had LVOT-G during screening as follows for Cohorts 1 and 2: (a) resting gradient≥50 mmHg; or (b) resting gradient≥30 mmHg and <50 mmHg with post-Valsalva LVOT-G≥50 mmHg; or as follows for Cohort 3: persistent resting LVOT obstruction (≥30 mmHg) and provoked LVOT obstruction (≥50 mmHg); 7. Left ventricular ejection fraction (LVEF)≥60% at screening; 8. […] Taking stable doses of disopyramide for >4 weeks prior to screening (Cohort 3 only).
Patients up-titrated to Dose 2 if either of the following conditions were met on echocardiography: (1) resting LVOT-G≥30 mmHg and the biplane LVEF≥50%; or (2) resting LVOT-G<30 mmHg, post-Valsalva LVOT-G≥50 mmHg, and the biplane LVEF≥50%. Otherwise, the patient remains on Dose 1. If LVEF is <50% at Week 2, the patient was down-titrated to placebo.
Overall, treatment duration for each patient in the study was 10 weeks with an echocardiogram conducted 2 weeks after the last dose. Efficacy endpoints included resting and provoked LVOT gradients, NYHA class, and NT-proBNP.

[2] = Phase 1 plasma pharmacokinetics, CYP2D6 poor metabolizer cohort; format: in vivo, human; details: CYP2D6 poor metabolizers, single 10 mg, n = 7
Procedure: CYP2D6 poor metabolizer cohort.
CYP2D6 genotypes were determined at screening for all study participants; those identified as CYP2D6-PMs were excluded from the SAD and MAD cohorts but were invited to participate in the CYP2D6-PM cohort. The first individual in the CYP2D6-PM cohort was dosed after the SAD 25-mg cohort (FIG. 2). […] Nine participants were randomized (7:2) with a sentinel dosing group consisting of the first 2 participants treated.
Pharmacokinetic analyses. For all study groups, blood samples for PK assessment were obtained pre-dose, up to 12 times daily on day 1, and then at regular intervals throughout the study. Blood samples were collected according to the following schedule: SAD Cohorts: Day 1: pre-dose and 0.25, 0.5, 1, 1.5, 2, 2.5, 3, 4, 6, 8, 12, 16, 24, 36, 48, 72, 96, and 216 h post dose. MAD Cohorts (14-day Dosing): Day 1: pre-dose and 0.25, 0.5, 1, 1.5, 2, 2.5, 3, 4, 6, 8, and 12 h post dose; Days 2, 4, 5, 6, and 9: pre-dose (corresponding to trough samples following dosing on days 1, 3, 4, 5, and 8) and 1.5 h post dose; Days 3, 7, 8, 10, 11, 12, and 13: pre-dose (corresponding to trough samples following dosing on days 2, 6, 7, 9, 10, 11, and 12); Day 14: pre-dose and 0.25, 0.5, 1.5, 2, 2.5, 3, 4, 6, 8, 12, 16, 24, 36, 48, 72, and 168 h post dose. […]

Compound: CCc1nc(-c2ccc3c(c2)CC[C@H]3NC(=O)c2cnn(C)c2)no1 [aficamten, (R)—N-(5-(5-ethyl-1,2,4-oxadiazol-3-yl)-2,3-dihydro-1H-inden-1-yl)-1-methyl-1H-pyrazole-4-carboxamide]
- Moderate adverse events recorded ([1]; Cohort 3): six
- New York Heart Association functional class ([1]; Cohort 3): improved in the majority of patients
- Patients whose LVEF fell below the safety threshold of 50% ([1]; Cohort 3): no patients
- Serious adverse events attributed to treatment ([1]; Cohort 3): no serious adverse events attributed to treatment
- Average resting and post-Valsalva LVOT-G ([1]; Cohort 3, 5, 10, 15 mg, 10 weeks): substantial reductions
- Patients with AEs related to study drug (per investigator) ([1]; Cohort 3, 13 patients): 2 (15.4) N (%)
- Patients with TEAEs leading to drug interruption or termination ([1]; Cohort 3, 13 patients): 0 N (%)
- Patients with TESAEs ([1]; Cohort 3, 13 patients): 0 N (%)
- Patients with at least one TEAE ([1]; Cohort 3, 13 patients): 9 (69) N (%)
- Patients with fatal TEAEs ([1]; Cohort 3, 13 patients): 0 N (%)
- TEAE of LVEF <50% (Core Lab) ([1]; Cohort 3, 13 patients): 0 N (%)
- Adverse events of asymptomatic atrial fibrillation ([1]; Cohort 3, patient with known prior history): One
- Effect on LVOT-G compared with Cohort 1 patients (same CK-274 dose) ([1]; Cohort 3, patients treated with disopyramide): mostly attenuated
- CL/F, mean ± SD [2]: 3.6 ± 1.4 L/h

Reference: patent US20250177357A1, “METHODS FOR TREATING HYPERTROPHIC CARDIOMYOPATHY” (priority 2021, published 2025)
